These results are taken from US12540131B2 (Merck Sharp & Dohme LLC, priority 2019, dated 2026).

SMILES strings stand for the structures. Some results are limits rather than exact numbers.

Chain of GST tagged truncated human mutant G2019S LRRK2 (Q5S007 970-2527 G2019S): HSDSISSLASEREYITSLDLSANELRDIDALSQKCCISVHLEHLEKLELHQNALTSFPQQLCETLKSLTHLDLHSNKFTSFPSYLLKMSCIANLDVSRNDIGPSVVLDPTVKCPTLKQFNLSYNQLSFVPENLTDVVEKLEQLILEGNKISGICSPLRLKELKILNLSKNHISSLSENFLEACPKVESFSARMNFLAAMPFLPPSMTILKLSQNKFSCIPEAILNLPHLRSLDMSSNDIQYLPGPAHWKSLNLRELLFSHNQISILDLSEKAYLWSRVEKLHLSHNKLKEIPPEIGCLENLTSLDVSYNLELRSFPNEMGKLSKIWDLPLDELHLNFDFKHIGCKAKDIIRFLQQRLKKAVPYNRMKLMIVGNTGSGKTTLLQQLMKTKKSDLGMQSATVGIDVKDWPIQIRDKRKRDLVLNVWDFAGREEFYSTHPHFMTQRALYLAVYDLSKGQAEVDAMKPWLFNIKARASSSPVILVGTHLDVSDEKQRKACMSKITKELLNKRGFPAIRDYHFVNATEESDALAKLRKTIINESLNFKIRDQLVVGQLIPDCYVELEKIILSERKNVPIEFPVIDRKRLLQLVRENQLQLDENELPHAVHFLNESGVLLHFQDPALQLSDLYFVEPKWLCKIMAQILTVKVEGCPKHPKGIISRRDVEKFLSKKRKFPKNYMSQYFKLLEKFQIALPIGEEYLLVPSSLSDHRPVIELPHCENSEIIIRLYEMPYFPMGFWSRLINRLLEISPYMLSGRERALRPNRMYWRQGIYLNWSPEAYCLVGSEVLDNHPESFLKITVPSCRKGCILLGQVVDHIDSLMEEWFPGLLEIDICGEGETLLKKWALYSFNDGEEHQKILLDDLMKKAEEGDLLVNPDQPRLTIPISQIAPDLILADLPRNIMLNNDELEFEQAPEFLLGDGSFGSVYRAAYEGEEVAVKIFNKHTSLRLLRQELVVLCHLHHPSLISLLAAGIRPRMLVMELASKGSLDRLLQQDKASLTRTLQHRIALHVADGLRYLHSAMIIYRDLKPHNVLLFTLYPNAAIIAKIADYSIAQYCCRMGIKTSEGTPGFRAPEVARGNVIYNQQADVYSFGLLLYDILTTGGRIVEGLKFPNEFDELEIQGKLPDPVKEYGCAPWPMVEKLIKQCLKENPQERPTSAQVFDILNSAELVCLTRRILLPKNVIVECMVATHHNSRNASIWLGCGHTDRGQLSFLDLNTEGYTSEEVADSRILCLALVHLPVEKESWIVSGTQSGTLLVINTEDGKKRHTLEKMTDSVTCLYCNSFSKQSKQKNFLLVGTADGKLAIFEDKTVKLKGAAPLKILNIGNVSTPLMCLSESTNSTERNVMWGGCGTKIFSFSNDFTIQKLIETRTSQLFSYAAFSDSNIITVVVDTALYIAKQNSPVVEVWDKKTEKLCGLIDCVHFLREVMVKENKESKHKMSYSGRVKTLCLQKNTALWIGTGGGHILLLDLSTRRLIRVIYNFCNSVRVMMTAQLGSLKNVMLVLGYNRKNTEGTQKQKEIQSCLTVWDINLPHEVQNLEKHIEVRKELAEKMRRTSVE

The first assay addresses GST tagged truncated human mutant G2019S LRRK2 (Homo sapiens (Human), UniProt Q5S007, G2019S). The experiment in a line: LRRK2 Km ATP LanthaScreen Assay. Format: biochemical. Conditions: G2019S LRRK2, 134 μM ATP (Km ATP), mean values. The method, boiled down:
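Enzyme (GST-tagged, truncated) was preincubated with compound for 15 min at RT in 50 mM Tris pH 8.5, 10 mM MgCl2, 0.01% Brij-35, 1 mM EGTA, 2 mM DTT and 0.05 mM orthovanadate. Fluorescein-LRRKtide and 134 μM ATP (Km) were then added for 90 min. EDTA and Tb-anti-pERM antibody stopped the reaction; the TR-FRET 520/495 ratio gave 4-parameter IC50s, reported as mean pIC50.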
(In general: Time-resolved FRET reads energy transfer from a long-lived donor to a nearby acceptor.)
As to `Cc1c(Nc2ncc3cc(Cl)c(C4CCN(C5CCC(CC#N)C5)CC4)cc3n2)cnn1C1CC1` (single isomer, unassigned) [Ex-4.169, (1R,3R) or (1S,3R) or (1R,3S) or (1S,3S) [3-(4-{6-chloro-2-[(1-cyclopropyl-5-methyl-1H-pyrazol-4-yl)amino]quinazolin-7-yl}piperidin-1-yl)cyclopentyl]acetonitrile], the “LRRK2 pIC50” value is reported as 8.25.

Turning to `Cc1c(Nc2ncc3cc(Cl)c(C4CCN(C5COC5)CC4)cc3n2)cnn1CCF` [Ex-4.54, 6-chloro-N-[1-(2-fluoroethyl)-5-methyl-1H-pyrazol-4-yl]-7-[1-(oxetan-3-yl)piperidin-4-yl]quinazolin-2-amine], the “LRRK2 pIC50” value is greater than 9.20. As to `CN1CC[C@@H](c2cc3nc(Nc4cnn(C5CC5)c4Cl)ncc3cc2Cl)[C@H](F)C1` (single isomer, unassigned) [Ex-4.39, (3S,4S) or (3R,4R) 6-chloro-N-(5-chloro-1-cyclopropyl-1H-pyrazol-4-yl)-7-(3-fluoro-1-methylpiperidin-4-yl)quinazolin-2-amine], the “LRRK2 pIC50” value was greater than 9.20.

`Cc1cc2cnc(Nc3cnn(C45CC(C4)C5)c3C)nc2cc1[C@@H]1CCN([C@H]2COC[C@H]2O)C[C@H]1F` (single isomer, unassigned) [Ex-4.164, (3S,4S)(3S,4S) or (3S,4S)(3R,4R) or (3R,4R)(3S,4S) or (3R,4R)(3R,4R) 4-[4-(2-{[1-(bicyclo[1.1.1]pentan-1-yl)-5-methyl-1H-pyrazol-4-yl]amino}-6-methylquinazolin-7-yl)-3-fluoropiperidin-1-yl]oxolan-3-ol]: the “LRRK2 pIC50” value was greater than 9.20. On the same count and under the same terms, for `Cc1cc2cnc(Nc3cnn(C)c3C(F)(F)F)nc2cc1C1CCN([C@]2(C)COC[C@@H]2O)CC1` (single isomer, unassigned) [Ex-5.16, (3S,4S) or (3R,4R) 4-methyl-4-(4-(6-methyl-2-((1-methyl-5-(trifluoromethyl)-1H-pyrazol-4-yl)amino)quinazolin-7-yl)piperidin-1-yl)tetrahydrofuran-3-ol] the value was greater than 9.20. In the case of `CC1(N2CCC(c3cc4nc(Nc5cnn(C67CC(C6)C7)c5Cl)ncc4cc3Cl)CC2)COC1` [Ex-8.38, N-[1-(bicyclo[1.1.1]pentan-1-yl)-5-chloro-1H-pyrazol-4-yl]-6-chloro-7-[1-(3-methyloxetan-3-yl)piperidin-4-yl]quinazolin-2-amine], the “LRRK2 pIC50” value is given as greater than 9.20. Consider `Cc1cc(Nc2ncc3cc(Cl)c([C@H]4CCN(C5COC5)C[C@@H]4F)cc3n2)sn1` (single isomer, unassigned) [Ex-4.51, (3S,4S) or (3R,4R) 6-chloro-7-[3-fluoro-1-(oxetan-3-yl)piperidin-4-yl]-N-(3-methyl-1,2-thiazol-5-yl)quinazolin-2-amine], for which the “LRRK2 pIC50” value was greater than 9.20. Regarding `CC1(n2ncc(Nc3ncc4cc(Cl)c([C@H]5CCN(C6COC6)C[C@@H]5F)cc4n3)c2Cl)CC1` (single isomer, unassigned) [Ex-4.28, (3S,4S) or (3R,4R) 6-chloro-N-[5-chloro-1-(1-methylcyclopropyl)-1H-pyrazol-4-yl]-7-[3-fluoro-1-(oxetan-3-yl)piperidin-4-yl]quinazolin-2-amine], the “LRRK2 pIC50” value is reported as greater than 9.20. As to `FC(F)(F)Cn1ncc(Nc2ncc3cc(Cl)c(C4CCN(C5COC5)CC4)cc3n2)c1Cl` [Ex-8.1, 6-chloro-N-(5-chloro-1-(2,2,2-trifluoroethyl)-1H-pyrazol-4-yl)-7-(1-(oxetan-3-yl)piperidin-4-yl)quinazolin-2-amine], the “LRRK2 pIC50” value was greater than 9.20. Consider `CC1(N2CC[C@H](c3cc4nc(Nc5cnn(C6CC6(F)F)c5Cl)ncc4cc3Cl)[C@@H](F)C2)COC[C@@H]1O` (single isomer, unassigned) [Ex-4.11, (R)(3S,4S)(3S,4S) or (R)(3S,4S)(3R,4R) or (R)(3R,4R)(3S,4S) or (R)(3R,4R)(3R,4R) or (S)(3S,4S)(3S,4S) or (S)(3S,4S)(3R,4R) or (S)(3R,4R)(3S,4S) or (S)(3R,4R)(3R,4R) 4-(6-chloro-2-((5-chloro-1-(2,2-difluorocyclopropyl)-1H-pyrazol-4-yl)amino)quinazolin-7-yl)-3-fluoropiperidin-1-yl)-4-methyltetrahydrofuran-3-ol], for which the “LRRK2 pIC50” value is recorded as 8.73. Take `Cc1c(Nc2ncc3cc(Cl)c(C4CCN(C[C@@H](O)c5cccc(F)c5F)CC4)cc3n2)cnn1C1CC1` [Ex-4.207, (1S)-2-(4-{6-chloro-2-[(1-cyclopropyl-5-methyl-1H-pyrazol-4-yl)amino]quinazolin-7-yl}piperidin-1-yl)-1-(2,3-difluorophenyl)ethan-1-ol]: the “LRRK2 pIC50” value is 8.31. In the case of `Cn1nc(C(F)(F)F)cc1Nc1ncc2cc(Cl)c([C@@H]3CCN([C@]4(C)COC[C@@H]4O)C[C@H]3F)cc2n1` (single isomer, unassigned) [Ex-4.251, (3S,4S)(3S,4S) or (3S,4S)(3R,4R) or (3R,4R)(3S,4S) or (3R,4R)(3R,4R) 4-[4-(6-chloro-2-{[1-methyl-3-(trifluoromethyl)-1H-pyrazol-5-yl]amino}quinazolin-7-yl)-3-fluoropiperidin-1-yl]-4-methyloxolan-3-ol], the “LRRK2 pIC50” value is 9.05.

Regarding `Cc1c(Nc2ncc3cc(Cl)c([C@H]4CCN(C5COC5)C[C@@H]4F)cc3n2)cnn1C1CC1(F)F` (single isomer, unassigned) [Ex-4.175, (R)(3S,4S) or (S)(3S,4S) or (R)(3R,4R) or (S)(3R,4R) 6-chloro-N-[1-(2,2-difluorocyclopropyl)-5-methyl-1H-pyrazol-4-yl]-7-[(3R,4R)-3-fluoro-1-(oxetan-3-yl)piperidin-4-yl]quinazolin-2-amine], the “LRRK2 pIC50” value came out at 9.10. As for `COC1CC(Cn2ncc(Nc3ncc4cc(Cl)c(C5CCN(C6COC6)CC5)cc4n3)c2Cl)C1` (centres unmarked) [Ex-8.17, 6-chloro-N-{5-chloro-1-[(3-methoxycyclobutyl)methyl]-1H-pyrazol-4-yl}-7-[1-(oxetan-3-yl)piperidin-4-yl]quinazolin-2-amine], the “LRRK2 pIC50” value is given as greater than 9.20. For `Cc1c(Nc2ncc3cc(Cl)c(C4CCN(C5COCC5C#N)CC4)cc3n2)cnn1C1CC1` (single isomer, unassigned) [Ex-2.50, (3S,4S) or (3R,4R) or (3S,4R) or (3R,4S) 4-(4-{6-chloro-2-[(1-cyclopropyl-5-methyl-1H-pyrazol-4-yl)amino]quinazolin-7-yl}piperidin-1-yl)oxolane-3-carbonitrile], the “LRRK2 pIC50” value came to 9.13. The same measure, in the same setting: with `CO[C@H]1COC[C@H]1N1CC[C@@H](c2cc3nc(Nc4cnn(C5CC5)c4Cl)ncc3cc2C)[C@H](F)C1` (single isomer, unassigned) [Ex-4.250, (3S,4S)(3S,4S) or (3S,4S)(3R,4R) or (3R,4R)(3S,4S) or (3R,4R)(3R,4R) N-(5-chloro-1-cyclopropyl-1H-pyrazol-4-yl)-7-[3-fluoro-1-(4-methoxyoxolan-3-yl)piperidin-4-yl]-6-methylquinazolin-2-amine] the figure was 8.22; with `Cn1nc(C(F)(F)F)cc1Nc1ncc2cc(Cl)c(C3CCN([C@]4(C)COC[C@@H]4O)CC3)cc2n1` (single isomer, unassigned) [Ex-2.89, (3S,4S) or (3R,4R) 4-[4-(6-chloro-2-{[1-methyl-3-(trifluoromethyl)-1H-pyrazol-5-yl]amino}quinazolin-7-yl)piperidin-1-yl]-4-methyloxolan-3-ol], 7.39; with `[2H]C1([2H])OC([2H])([2H])C1([2H])N1CCC(c2cc3nc(Nc4cnn(CC(C)(C)O)c4Cl)ncc3cc2Cl)CC1` [Ex-4.58, 1-(5-chloro-4-((6-chloro-7-(1-(oxetan-3-yl-d5)piperidin-4-yl)quinazolin-2-yl)amino)-1H-pyrazol-1-yl)-2-methylpropan-2-ol], greater than 9.20.

The same assay, now with this note: G2019S LRRK2, 134 μM ATP (Km ATP), mean values; read-out: LRRK2 pIC50 (converted).
As to `Cc1c(Nc2ncc3cc(Cl)c(C4CCN(CC(C)(O)c5ccccc5)CC4)cc3n2)cnn1C1CC1` (single isomer, unassigned) [Ex-4.223, (S) or (R) 1-(4-{6-chloro-2-[(1-cyclopropyl-5-methyl-1H-pyrazol-4-yl)amino]quinazolin-7-yl}piperidin-1-yl)-2-phenylpropan-2-ol], the IC50 is 2.45 nM. Consider `Cc1nsc(Nc2ncc3cc(Cl)c(C4CCN(C5CCOC5)CC4)cc3n2)c1Cl` (single isomer, unassigned) [Ex-8.19, (S) or (R) 6-chloro-N-(4-chloro-3-methyl-1,2-thiazol-5-yl)-7-[1-(oxolan-3-yl)piperidin-4-yl]quinazolin-2-amine], for which the IC50 is 1.15 nM. On the same count and under the same terms, with `Cc1c(Nc2ncc3cc(Cl)c(C4CCN(C5COC(C)(C)C5)CC4)cc3n2)cnn1C1CC1` (single isomer, unassigned) [Ex-4.174, (R) or (S) 6-chloro-N-(1-cyclopropyl-5-methyl-1H-pyrazol-4-yl)-7-[1-(5,5-dimethyloxolan-3-yl)piperidin-4-yl]quinazolin-2-amine] the figure was less than 0.631 nM. Take `CC1(N2CCC(c3cc4nc(Nc5cnn(C67CC(C6)C7)c5)ncc4cc3Cl)CC2)COC1` [Ex-2.18, N-(1-(bicyclo[1.1.1]pentan-1-yl)-1H-pyrazol-4-yl)-6-chloro-7-(1-(3-methyloxetan-3-yl)piperidin-4-yl)quinazolin-2-amine]: the IC50 was less than 0.631 nM. On the same count and under the same terms, with `CO[C@@H]1COC[C@]1(C)N1CCC(c2cc3nc(Nc4cnn(C5CC5)c4C)ncc3cc2Cl)CC1` (single isomer, unassigned) [Ex-7.3, (3S,4S) or (3R,4R) 6-chloro-N-(1-cyclopropyl-5-methyl-1H-pyrazol-4-yl)-7-(1-(4-methoxy-3-methyltetrahydrofuran-3-yl)piperidin-4-yl)quinazolin-2-amine] the figure was 11.7 nM.
